In publication PMC9241669, “Allantodapsone is a Pan-Inhibitor of Staphylococcus aureus Adhesion to Fibrinogen, Loricrin, and Cytokeratin 10” (Microbiology Spectrum, 2022):
≈ marks a conversion by molar mass, not a printed value. Where “and” joins values, the source holds several entries; their conditions need not be identical. Equal entries are not always repeated. Entries after “also recorded” stand apart in the source; their conditions may differ.

Experiments:
S. aureus Newman [1] = test: Antimicrobial assay (bacterial growth in BHI broth); format: cell-based, Staphylococcus aureus; settings: for MIC90: Staphylococcus aureus, S. aureus Newman, overnight growth in BHI broth; for inhibition of bacterial growth (words): overnight in BHI broth, allantodapsone up to 100 μM, versus vehicle control
Experimental: S. aureus was grown in BHI broth shaking overnight at 37°C in the presence of a range of concentrations of allantodapsone, dapsone, or ampicillin as control. Absorbance was measured the following day at 570 nm. Data have been normalized to the relevant vehicle control (1% DMSO for allantodapsone and dapsone and water for ampicillin). […] Error bars represent SEM.
S. aureus was grown overnight in BHI broth at 37°C in shaking incubator. Wells were inoculated with 10 μL of overnight culture into 90 μL of broth containing the test compounds or controls. A growth control containing no agents was used (positive control), a sterility control of broth alone was included, and vehicle controls were included for each test compound. Plates were incubated overnight at 37°C and absorbance measured at 570 nm the following day using a Wallac Victor2, (Shelton, CT, USA).

MSSA isolates = settings: cited from earlier work
S. aureus Newman [2] = test: Adhesion of S. aureus Newman to GST-L2v loricrin; format: cell-based, Staphylococcus aureus; settings: for activity in adhesion of S. aureus Newman to L2v loricrin: screened at 80 μM (Fig. 4D)
Experimental: FIG 4 Allantodapsone inhibits S. aureus adhesion to loricrin and cytokeratin 10. Dose-response curve for adhesion of S. aureus Newman to GST-L2v loricrin (A) and CK10 (C). (B) Inhibition of recombinant ClfB N2N3 binding to immobilized GST-L2v loricrin by allantodapsone. (D) Inhibition of S. aureus Newman adhesion to GST-L2v loricrin by allantodapsone derivatives. Purified GST-L2v or CK10 were used to coat plates at 4°C overnight. Wells were washed with PBS and blocked with 1% BSA. Washed bacteria (OD600 of 1) were mixed with allantodapsone or vehicle control before being added to the wells and incubated for 2 h at 37°C. Adherent cells were washed, fixed, and stained with crystal violet, and wells further washed. The dye was dissolved in acetic acid, and the absorbance measured at 570 nm. GST-L2v was used at 20 μM in A and D. CK10 was used at 10 nM. Test compounds were incubated with bacteria at 80 μM and normalized to the DMSO vehicle control in D. For data presented in B, recombinant ClfB was incubated with allantodapsone (100 μM) or DMSO (1%) for 30 min prior to being added to wells coated with recombinant GST-L2v loricrin. Bound ClfB was detected using peroxidase-conjugated anti-His monoclonal antibody in an ELISA. The graphs shown are representative of three independent experiments. Statistics were carried out using one-way ANOVA followed by the Dunnett’s posttest using GraphPad Prism version 9.0.
(§1) Adhesion assays were carried out according to Hartford et al. ([37]). Briefly, plates were coated with 10 μg/mL fibrinogen (Calbiochem, Darmstadt, Germany) or 20 μg/mL fibronectin (Sigma-Aldrich, Ireland) for 2 h at 37°C or for 16 h at 4°C. Plates were blocked with 1% BSA at 37°C for 1 h and washed 3 times in PBS. Washed bacteria were incubated at 37°C for 2 h. Adherent bacteria were washed three times in PBS and fixed in 5–9% formaldehyde at room temperature for 30 min. Wells were washed three times in PBS and stained using 5% crystal violet for 20 min. Wells were washed three times in PBS, and the crystal violet solubilized using 5% acetic acid. Plates were read at 570 nm on a Wallac Victor2, (Shelton, CT, USA). The minimum adhesion inhibitory concentration (MAIC) was determined as the concentration inhibiting greater than 90% bacterial adhesion.

S. aureus Newman [3] = test: Adhesion of S. aureus Newman to immobilized fibrinogen (crystal violet); format: cell-based, Staphylococcus aureus; settings: for activity of individual fragments of allantodapsone: assay not specified; for inhibition of adhesion to fibrinogen: S. aureus Newman, stationary and exponential phase, compounds screened at 70 μM (Fig. 2)
Experimental: FIG 1 Allantodapsone inhibits S. aureus Newman adhesion to fibrinogen. Dose response curves for S. aureus Newman (A), L. lactis ClfA (B), and L. lactis ClfB (C) adhesion to fibrinogen. Fibrinogen was used to coat plates at 4°C overnight at 10 μg/mL. Wells were washed with PBS and blocked with 1% BSA. Washed bacteria (OD600 of 1) were mixed with the relevant concentration of allantodapsone or vehicle control (DMSO) for 5 min, and added to the wells, incubating for 2 h at 37°C. Adherent cells were washed, fixed, and stained with crystal violet, and wells further washed. The dye was dissolved in acetic acid and the absorbance measured at 570 nm. IC50 values were generated using GraphPad Prism 9.0 GraphPad software, San Diego, CA. Data are representative of three experiments with error presented as SEM.
(§2) FIG 2 Allantodapsone inhibits S. aureus adhesion to fibrinogen. (A) S. aureus Newman stationary phase and (B) exponential phase. (C) S. aureus SH1000 stationary phase and (D) exponential phase bacteria. Fibrinogen was used to coat plates at 4°C overnight at 10 μg/mL. Wells were washed with PBS and blocked with 1% BSA. Washed bacteria (OD600 of 1) were mixed with the relevant concentration of allantodapsone or vehicle control for 5 min, and added to the wells, incubating for 2 h at 37°C. Adherent cells were washed, fixed, and stained with crystal violet, and wells further washed. The dye was dissolved in acetic acid and the absorbance measured at 570 nm. Compounds were screened at a concentration of 70 μM and compared to their vehicle control. Statistical analysis was carried out using repeated measures ANOVA followed by multiple comparisons Dunnett’s tests using GraphPad PRISM. **, P ≤ 0.01; ***, P ≤ 0.001; ****, P ≤ 0.0001 (n = 3).
as §1
(§3) Compounds were added to the bacterial suspension prior to addition to the wells. In each experiment, vehicle controls were prepared using the same volume of vehicle for the matching test compound.

S. aureus SH1000 = test: Adhesion of S. aureus SH1000 to immobilized fibrinogen (crystal violet); format: cell-based, Staphylococcus aureus; settings: S. aureus SH1000, stationary and exponential phase; compounds screened at 70 μM (Fig. 2)
Experimental: as §2, §1, §3

In the case of `CC1(C)S[C@@H]2[C@H](NC(=O)[C@H](N)c3ccccc3)C(=O)N2[C@H]1C(=O)O` [ampicillin], the MIC90 (S. aureus Newman [1]) is given as 0.03 µM and 0.01 µg/mL, the “inhibition of bacterial growth (words)” value (S. aureus Newman [1]) is given as “pronounced inhibitory effect on growth” and the “MIC90 reported for S. aureus isolates” value (MSSA isolates; microdilution method in MSSA isolates) is given as 0.015 to 4 µg/mL.
With `N=C(N)Nc1ccc(Oc2cccc(NC(=N)N)c2)cc1` [Compound 10] the “activity in adhesion of S. aureus Newman to L2v loricrin” value (S. aureus Newman [2]) was “loss of activity”.
With `N=C(N)Nc1ccc(Oc2cccc(NC(=O)c3ccc(Cl)c(C(F)(F)F)c3)c2)cc1` [Compound 11] the “activity in adhesion of S. aureus Newman to L2v loricrin” value (S. aureus Newman [2]) was “demonstrated activity; also recorded: maintained some activity” and the “adhesion to L2v loricrin, normalized to DMSO vehicle control” value (S. aureus Newman [2]; test compound at 80 μM, S. aureus Newman) was 61.3% ± 7.
With `O=C1NC(=O)C(=NO)C(=O)N1` [violuric acid] the “activity of individual fragments of allantodapsone” value (“activity … of allantodapsone” below) (S. aureus Newman [3]) was “did not show any activity”.
For `O=C1NC(=O)C(=O)C(=O)N1` [alloxan], the “inhibition of adhesion to fibrinogen” value (S. aureus Newman [3]) was “Neither dapsone nor alloxan had any inhibitory activity; also recorded: did not have any inhibitory effect”, the “activity … of allantodapsone” value (S. aureus Newman [3]) was “did not show any activity” and the “inhibition of adhesion to fibrinogen” value (S. aureus SH1000) was “Neither dapsone nor alloxan had any inhibitory activity”.
In the case of `Nc1ccc(S(=O)(=O)c2ccc(N)cc2)cc1` [dapsone], the “inhibition of adhesion to fibrinogen” value (S. aureus Newman [3]) is reported as “Neither dapsone nor alloxan had any inhibitory activity; also recorded: did not have any inhibitory effect”, the “activity … of allantodapsone” value (S. aureus Newman [3]) is reported as “did not show any activity” and the “inhibition of adhesion to fibrinogen” value (S. aureus SH1000) is reported as “Neither dapsone nor alloxan had any inhibitory activity”. The MIC90 (S. aureus Newman [1]) was 0.3 µM and 0.1 µg/mL, the “inhibition of bacterial growth (words)” value (S. aureus Newman [1]) was “inhibited growth” and the “MIC90 previously determined in MSSA strains” value (MSSA isolates; MSSA strains) was 128 µg/mL (≈ 515 µM). For the same compound, the “range printed in parentheses after MIC90 in MSSA strains” value (MSSA isolates; MSSA strains) was 32 to 256 µg/mL.
